Earlier results in US20220184095A1 (Mylan Specialty L.P., priority 2019, published 2022).

Conditions: orally delivered, humans

- Tmax (time to reach maximum concentration): 4 to 6 h
- time to reach the therapeutic concentration that enables the onset of action: 2 to 3 h
SMILES: Cc1cnc(NC(=O)C2=C(O)c3ccccc3S(=O)(=O)N2C)s1 [meloxicam, 4-hydroxy-2-methyl-N-(5-methyl-2-thiazolyl)-2H-1,2-benzothiazine-3-carboxamide-1,1-dioxide]
